Measurements from ChEMBL document CHEMBL4732080, “Polypharmacological drug actions of recently FDA approved antibiotics” (Eur J Med Chem, 2021).
≈ marks a conversion by molar mass, not a printed value.

How the values were obtained:
[1] = target: Albumin (Homo sapiens, UniProt P02768); assay: Protein binding to human serum albumin; format: ADME, cell-free; details: read-out: PB (converted)
[2] = Terminal half life in human; format: ADME; details: read-out: beta t1/2 (converted)
[3] = Terminal half life in human at 10 mg/kg, administered as single dose measured over 2 hrs; format: ADME, organism-based; details: in vivo, read-out: beta t1/2 (converted)
[4] = system: Staphylococcus aureus; assay: Antibacterial activity against methicillin-resistant Staphylococcus aureus; format: functional

Chain of Albumin (P02768 whole entry): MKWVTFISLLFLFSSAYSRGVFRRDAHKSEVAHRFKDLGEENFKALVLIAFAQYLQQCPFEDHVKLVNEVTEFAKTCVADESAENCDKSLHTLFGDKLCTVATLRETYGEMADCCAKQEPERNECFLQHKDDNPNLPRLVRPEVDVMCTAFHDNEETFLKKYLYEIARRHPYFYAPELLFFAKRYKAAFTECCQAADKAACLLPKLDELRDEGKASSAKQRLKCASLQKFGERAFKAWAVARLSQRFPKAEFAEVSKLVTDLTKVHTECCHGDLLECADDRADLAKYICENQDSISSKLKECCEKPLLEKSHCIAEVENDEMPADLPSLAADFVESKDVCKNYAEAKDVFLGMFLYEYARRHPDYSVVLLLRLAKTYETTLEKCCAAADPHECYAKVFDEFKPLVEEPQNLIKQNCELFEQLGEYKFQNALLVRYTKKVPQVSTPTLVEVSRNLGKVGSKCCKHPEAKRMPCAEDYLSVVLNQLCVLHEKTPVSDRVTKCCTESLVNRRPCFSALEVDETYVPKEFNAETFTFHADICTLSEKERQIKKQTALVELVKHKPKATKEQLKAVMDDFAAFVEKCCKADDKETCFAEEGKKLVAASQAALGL

Row | SMILES | fraction unbound [1] | half-life [2] | half-life [3] | MIC50 [4]
1 | CN[C@H](CC(C)C)C(=O)N[C@H]1C(=O)N[C@@H](CC(N)=O)C(=O)N[C@H]2C(=O)N[C@H]3C(=O)N[C@H](C(=O)N[C@H](C(=O)O)c4cc(O)cc(O)c4-c4cc3ccc4O)[C@H](O[C@H]3C[C@](C)(N)[C@@H](O)[C@H](C)O3)c3ccc(c(Cl)c3)Oc3cc2cc(c3O[C@@H]2O[C@H](CO)[C@@H](O)[C@H](O)[C@H]2O[C@H]2C[C@](C)(NCc3ccc(-c4ccc(Cl)cc4)cc3)[C@@H](O)[C@H](C)O2)Oc2ccc(cc2Cl)[C@H]1O [ORITAVANCIN] | 0.1 | 195 h |  | 
2 | CCCCCCCCCCNCCN[C@@]1(C)C[C@H](O[C@H]2[C@H](Oc3c4cc5cc3Oc3ccc(cc3Cl)[C@@H](O)[C@@H](NC(=O)[C@@H](CC(C)C)NC)C(=O)N[C@@H](CC(N)=O)C(=O)N[C@H]5C(=O)N[C@H]3C(=O)N[C@H](C(=O)N[C@H](C(=O)O)c5cc(O)c(CNCP(=O)(O)O)c(O)c5-c5cc3ccc5O)[C@H](O)c3ccc(c(Cl)c3)O4)O[C@H](CO)[C@@H](O)[C@@H]2O)O[C@@H](C)[C@H]1O [TELAVANCIN] | 0.07 |  | 7.5 h | 
3 | CN[C@H](CC(C)C)C(=O)N[C@H]1C(=O)N[C@@H](CC(N)=O)C(=O)N[C@H]2C(=O)N[C@H]3C(=O)N[C@H](C(=O)N[C@H](C(=O)O)c4cc(O)cc(O)c4-c4cc3ccc4O)[C@H](O)c3ccc(c(Cl)c3)Oc3cc2cc(c3O[C@@H]2O[C@H](CO)[C@@H](O)[C@H](O)[C@H]2O[C@H]2C[C@](C)(N)[C@H](O)[C@H](C)O2)Oc2ccc(cc2Cl)[C@H]1O [VANCOMYCIN] | 0.9 | 6 h |  | 1 µg/mL (≈ 0.69 µM)
